The values that follow come from US20220220128A1, “HETEROCYCLIC COMPOUNDS AS KINASE INHIBITORS, COMPOSITIONS COMPRISING THE HETEROCYCLIC COMPOUND, AND METHODS OF USE THEREOF” (JS Innopharm (Shanghai) Ltd, priority 2019, published 2022).

Molecules are shown by their SMILES.

The target in one experiment is T1, human RET kinase (Homo sapiens, UniProt P07949).
T1 construct: purchased Carna 08-159
Description: RET Kinase Assay (LanthaScreen TR-FRET enzymatic assay). As to conditions: 7 nM RET, 23 μM ATP. Format: biochemical. The method, boiled down:
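TR-FRET enzymatic read-out using 23 μM ATP, 3 μM FAM-P2 substrate and 7 nM human RET, after 15-min compound pretreatment at room temperature and a 1 h reaction at 28° C in HEPES pH 7.5 buffer. Percent of DMSO control fitted to nonlinear sigmoid curves for IC50.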
(Time-resolved FRET reads energy transfer from a long-lived donor to a nearby acceptor.)

In the next experiment the target is T2, human KDR kinase (Homo sapiens, UniProt P35968).
T2 construct: purchased Carna 08-191
T2 sequence (P35968 20-1356): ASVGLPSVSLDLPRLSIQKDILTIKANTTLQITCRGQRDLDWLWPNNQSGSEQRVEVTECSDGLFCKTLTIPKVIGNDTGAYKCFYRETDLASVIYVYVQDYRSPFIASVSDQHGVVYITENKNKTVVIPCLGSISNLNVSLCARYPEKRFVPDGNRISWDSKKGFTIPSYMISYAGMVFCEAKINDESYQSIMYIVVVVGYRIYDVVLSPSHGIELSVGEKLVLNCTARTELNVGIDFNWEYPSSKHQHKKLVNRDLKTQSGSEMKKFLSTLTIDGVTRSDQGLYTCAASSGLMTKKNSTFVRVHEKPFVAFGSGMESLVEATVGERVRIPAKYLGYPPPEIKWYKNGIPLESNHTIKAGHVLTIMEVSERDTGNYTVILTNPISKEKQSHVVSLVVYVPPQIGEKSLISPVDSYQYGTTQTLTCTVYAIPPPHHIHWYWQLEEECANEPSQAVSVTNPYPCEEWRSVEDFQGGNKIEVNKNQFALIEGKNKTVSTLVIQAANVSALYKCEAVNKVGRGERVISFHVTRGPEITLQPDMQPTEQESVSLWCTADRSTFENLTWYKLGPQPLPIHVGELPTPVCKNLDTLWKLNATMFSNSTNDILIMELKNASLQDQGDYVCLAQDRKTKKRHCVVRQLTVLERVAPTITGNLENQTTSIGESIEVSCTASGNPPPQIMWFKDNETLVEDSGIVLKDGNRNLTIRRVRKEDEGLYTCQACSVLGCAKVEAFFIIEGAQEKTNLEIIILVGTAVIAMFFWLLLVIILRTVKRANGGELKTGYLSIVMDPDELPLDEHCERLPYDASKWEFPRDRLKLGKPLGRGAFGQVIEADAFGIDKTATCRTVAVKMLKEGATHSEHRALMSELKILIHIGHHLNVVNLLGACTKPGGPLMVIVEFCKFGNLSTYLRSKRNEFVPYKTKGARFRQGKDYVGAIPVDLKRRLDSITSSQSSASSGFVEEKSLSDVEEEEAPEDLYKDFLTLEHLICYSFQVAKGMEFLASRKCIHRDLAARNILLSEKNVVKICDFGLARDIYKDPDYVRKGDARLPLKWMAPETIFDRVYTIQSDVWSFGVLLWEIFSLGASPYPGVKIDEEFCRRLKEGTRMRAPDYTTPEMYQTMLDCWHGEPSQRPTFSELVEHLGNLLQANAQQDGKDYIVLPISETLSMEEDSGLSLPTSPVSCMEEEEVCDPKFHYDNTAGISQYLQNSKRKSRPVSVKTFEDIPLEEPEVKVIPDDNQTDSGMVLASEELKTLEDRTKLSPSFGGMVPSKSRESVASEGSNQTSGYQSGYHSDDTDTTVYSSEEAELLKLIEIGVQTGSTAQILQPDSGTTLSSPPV
Description: KDR Kinase Assay (LanthaScreen TR-FRET enzymatic assay). As to conditions: 1.2 nM KDR, 92 μM ATP. Format: biochemical. The gist of the method:
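TR-FRET enzymatic format: after 15-min room-temperature compound pretreatment, 1.2 nM human KDR phosphorylated 3 μM FAM-P22 with 92 μM ATP (HEPES pH 7.5, 28° C., one hour). Reactions were quenched with EDTA buffer. IC50 came from nonlinear sigmoid fits of percent-of-vehicle signal ratios.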

A further experiment concerns TT cells. Description: TT Cell Proliferation Assay (WST-8, 8 days). Format: cell-based. As to conditions: Homo sapiens, TT, 192 h, growth inhibition in TT cells, read-out: TT Cellular Activity. The method, boiled down: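 IC50 was derived from absorbance at 450 nm after 5 h with WST-8, following 8 days' incubation at 37 °C. Final compound levels spanned 0.0005–5 μM in 0.5% DMSO. TT cells were seeded at 6,000 per well in 10% FBS RPMI-1640 and left to attach for 24 h beforehand.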

T1 sequence (P07949 29-1114): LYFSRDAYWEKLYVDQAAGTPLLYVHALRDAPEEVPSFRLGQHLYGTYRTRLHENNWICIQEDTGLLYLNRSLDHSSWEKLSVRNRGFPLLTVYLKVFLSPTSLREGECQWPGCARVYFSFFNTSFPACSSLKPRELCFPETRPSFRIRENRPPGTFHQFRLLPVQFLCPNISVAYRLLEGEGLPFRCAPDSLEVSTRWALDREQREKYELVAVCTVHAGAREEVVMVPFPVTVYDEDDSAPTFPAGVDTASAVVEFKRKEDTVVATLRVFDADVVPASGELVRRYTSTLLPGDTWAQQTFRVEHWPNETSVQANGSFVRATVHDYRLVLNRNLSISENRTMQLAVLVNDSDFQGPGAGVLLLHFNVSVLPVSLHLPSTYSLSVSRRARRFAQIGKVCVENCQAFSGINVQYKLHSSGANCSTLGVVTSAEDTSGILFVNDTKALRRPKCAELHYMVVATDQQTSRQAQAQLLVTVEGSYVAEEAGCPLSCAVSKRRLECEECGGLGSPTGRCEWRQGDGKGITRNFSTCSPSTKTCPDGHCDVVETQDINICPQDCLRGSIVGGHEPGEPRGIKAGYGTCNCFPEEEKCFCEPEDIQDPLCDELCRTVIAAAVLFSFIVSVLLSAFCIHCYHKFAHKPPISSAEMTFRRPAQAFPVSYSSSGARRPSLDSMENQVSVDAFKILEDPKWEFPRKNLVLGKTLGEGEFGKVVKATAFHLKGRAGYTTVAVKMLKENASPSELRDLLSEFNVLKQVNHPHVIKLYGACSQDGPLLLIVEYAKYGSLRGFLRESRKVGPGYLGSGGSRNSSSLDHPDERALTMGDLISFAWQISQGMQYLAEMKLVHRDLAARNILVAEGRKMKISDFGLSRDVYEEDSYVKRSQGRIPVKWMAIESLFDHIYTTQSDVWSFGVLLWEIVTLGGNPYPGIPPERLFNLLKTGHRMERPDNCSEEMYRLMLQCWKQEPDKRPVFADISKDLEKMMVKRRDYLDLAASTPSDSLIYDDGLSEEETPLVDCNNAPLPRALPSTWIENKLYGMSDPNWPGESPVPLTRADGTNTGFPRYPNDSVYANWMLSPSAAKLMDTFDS

With `CCOc1cc(-c2ccc(N3C[C@H]4CN(C(=O)c5ncccc5Cl)C[C@H]4C3)nc2)c2c(C#N)cnn2c1` [Example 6, 4-(6-((3aR,6aS)-5-(3-chloropicolinoyl)hexahydropyrrolo[3,4-c]pyrrol-2(1H)-yl)pyridin-3-yl)-6-ethoxypyrazolo[1,5-a]pyridine-3-carbonitrile], the IC50 at human RET kinase is ≤ 10 nM; on human KDR kinase, > 100 nM; in the experiment with TT cells it was 10 to 50 nM.

For `Cn1cc(-c2cc(-c3ccc(N4C[C@@H]5[C@H](CNC(=O)OC(C)(C)C)[C@@H]5C4)nc3)c3c(C#N)cnn3c2)cn1` [Example 72, tert-butyl (((1R,5S,6r)-3-(5-(3-cyano-6-(1-methyl-1H-pyrazol-4-yl)pyrazolo[1,5-a]pyridin-4-yl)pyridin-2-yl)-3-azabicyclo[3.1.0]hexan-6-yl)methyl)carbamate], the IC50 against human RET kinase, on human KDR kinase and in the experiment on TT cells was ≤ 10 nM in each case.

Take `COc1ccc(C(=O)N[C@H]2[C@@H]3CN(c4ccc(-c5cc(-c6cnn(C)c6)cn6ncc(C#N)c56)cc4)C[C@@H]32)cn1` [Example 15, N-((1R,5S,6s)-3-(4-(3-cyano-6-(1-methyl-1H-pyrazol-4-yl)pyrazolo[1,5-a]pyridin-4-yl)phenyl)-3-azabicyclo[3.1.0]hexan-6-yl)-6-methoxynicotinamide]: the IC50 is 10 to 50 nM at human RET kinase, 50 to 100 nM against human KDR kinase and 10 to 50 nM in the experiment with TT cells.

In the case of `CC(C)(O)COc1cc(-c2ccc(N3C[C@@H]4C[C@@](C)(NC(=O)c5ncccc5F)C[C@@H]4C3)nc2)c2c(C#N)cnn2c1` [Example 128, N-((3aR,5s,6aS)-2-(5-(3-cyano-6-(2-hydroxy-2-methylpropoxy)pyrazolo[1,5-a]pyridin-4-yl)pyridin-2-yl)-5-methyloctahydrocyclopenta[c]pyrrol-5-yl)-3-fluoropicolinamide], the IC50 is ≤ 10 nM at human RET kinase, 10 to 50 nM against human KDR kinase and 10 to 50 nM with TT cells.

Regarding `Cn1ccc(-c2cc(-c3ccc(N4C[C@@H]5[C@H](C4)[C@H]5NC(=O)c4ncccc4Cl)nc3)c3c(C#N)cnn3c2)n1` [Example 29, 3-chloro-N-((1R,5S,6s)-3-(5-(3-cyano-6-(1-methyl-1H-pyrazol-3-yl)pyrazolo[1,5-a]pyridin-4-yl)pyridin-2-yl)-3-azabicyclo[3.1.0]hexan-6-yl)picolinamide], the IC50 against human RET kinase was ≤ 10 nM; on human KDR kinase, 10 to 50 nM; with TT cells it was 50 to 100 nM.

Turning to `Cn1cc(-c2cc(-c3ccc(N4C[C@@H]5[C@@H](CNC(=O)c6ncccc6C(F)(F)F)[C@@H]5C4)nc3)c3c(C#N)cnn3c2)cn1` [Example 186, N-(((1R,5S,6s)-3-(5-(3-cyano-6-(1-methyl-1H-pyrazol-4-yl)pyrazolo[1,5-a]pyridin-4-yl)pyridin-2-yl)-3-azabicyclo[3.1.0]hexan-6-yl)methyl)-3-(trifluoromethyl)picolinamide], the IC50 against human RET kinase, on human KDR kinase and in the experiment on TT cells was ≤ 10 nM in each case.

For `COc1ccc(CN[C@H]2[C@@H]3CN(c4ccc(-c5cc(-c6cnn(C)c6)cn6ncc(C#N)c56)cn4)C[C@@H]32)cn1` [Example 33, 4-(6-((1R,5S,6s)-6-(((6-methoxypyridin-3-yl)methyl)amino)-3-azabicyclo[3.1.0]hexan-3-yl)pyridin-3-yl)-6-(1-methyl-1H-pyrazol-4-yl)pyrazolo[1,5-a]pyridine-3-carbonitrile], the IC50 is ≤ 10 nM against human RET kinase, 10 to 50 nM against human KDR kinase and 10 to 50 nM with TT cells.

For `CC(C)(O)COc1cc(-c2ccc(N3C[C@@H]4[C@@H](CNC(=O)c5ncccc5Cl)[C@@H]4C3)nc2)c2c(C#N)cnn2c1` [Example 95, 3-chloro-N-(((1R,5S,6s)-3-(5-(3-cyano-6-(2-hydroxy-2-methylpropoxy)pyrazolo[1,5-a]pyridin-4-yl)pyridin-2-yl)-3-azabicyclo[3.1.0]hexan-6-yl)methyl)picolinamide], the figures for the IC50 against human RET kinase, at human KDR kinase and in the experiment with TT cells were ≤ 10 nM, > 100 nM and 10 to 50 nM, respectively.

For `Cn1cc(-c2cc(-c3cnc(N4C[C@@H]5C[C@@](C)(NC(=O)c6c(F)cccc6Cl)C[C@@H]5C4)cn3)c3c(C#N)cnn3c2)cn1` [Example 141, 2-chloro-N-((3aR,5s,6aS)-2-(5-(3-cyano-6-(1-methyl-1H-pyrazol-4-yl)pyrazolo[1,5-a]pyridin-4-yl)pyrazin-2-yl)-5-methyloctahydrocyclopenta[c]pyrrol-5-yl)-6-fluorobenzamide], the IC50 on human RET kinase, on human KDR kinase and in the experiment with TT cells was ≤ 10 nM in each case.

Take `COc1ccc(CN(C)[C@H]2[C@@H]3CN(c4ccc(-c5cc(-c6cnn(C)c6)cn6ncc(C#N)c56)cn4)C[C@@H]32)cn1` [Example 34, 4-(6-((1R,5S,6s)-6-(((6-methoxypyridin-3-yl)methyl)(methyl)amino)-3-azabicyclo[3.1.0]hexan-3-yl)pyridin-3-yl)-6-(1-methyl-1H-pyrazol-4-yl)pyrazolo[1,5-a]pyridine-3-carbonitrile]: the IC50 at human RET kinase is ≤ 10 nM; on human KDR kinase it was 10 to 50 nM; with TT cells it was 10 to 50 nM.

With `Cn1ccc(-c2cc(-c3ccc(N4C[C@@H]5C[C@@](C)(NC(=O)c6ncccc6C#N)C[C@@H]5C4)nc3)c3c(C#N)cnn3c2)n1` [Example 198, 3-cyano-N-((3aR,5s,6aS)-2-(5-(3-cyano-6-(1-methyl-1H-pyrazol-3-yl)pyrazolo[1,5-a]pyridin-4-yl)pyridin-2-yl)-5-methyloctahydrocyclopenta[c]pyrrol-5-yl)picolinamide], the figures for the IC50 at human RET kinase, against human KDR kinase and in the experiment with TT cells were 10 to 50 nM, 50 to 100 nM and 10 to 50 nM, respectively.

Turning to `CCOc1cc(-c2cnc(N3C[C@H]4C[C@H](NC(=O)c5ncccc5Cl)C[C@H]4C3)cn2)c2c(C#N)cnn2c1` [Example 50, 3-chloro-N-((3aR,5s,6aS)-2-(5-(3-cyano-6-ethoxypyrazolo[1,5-a]pyridin-4-yl)pyrazin-2-yl)octahydrocyclopenta[c]pyrrol-5-yl)picolinamide], the figures for the IC50 against human RET kinase, on human KDR kinase and in the experiment with TT cells were ≤ 10 nM, > 100 nM and 10 to 50 nM, respectively.

In the case of `CC(C)(O)COc1cc(-c2ccc(N3C[C@@H]4[C@H](C3)[C@H]4NS(=O)(=O)c3c(F)cccc3Cl)nc2)c2c(C#N)cnn2c1` [Example 47, 2-chloro-N-((1R,5S,6s)-3-(5-(3-cyano-6-(2-hydroxy-2-methylpropoxy)pyrazolo[1,5-a]pyridin-4-yl)pyridin-2-yl)-3-azabicyclo[3.1.0]hexan-6-yl)-6-fluorobenzene-sulfonamide], the IC50 is ≤ 10 nM at human RET kinase, 10 to 50 nM on human KDR kinase and 10 to 50 nM in the experiment on TT cells.

`CCOc1cc(-c2ccc(N3C[C@@H]4C[C@@](C)(NC(=O)c5ncc(F)cc5Cl)C[C@@H]4C3)nc2)c2c(C#N)cnn2c1` [Example 64, 3-chloro-N-((3aR,5s,6aS)-2-(5-(3-cyano-6-ethoxypyrazolo[1,5-a]pyridin-4-yl)pyridin-2-yl)-5-methyloctahydrocyclopenta[c]pyrrol-5-yl)-5-fluoropicolinamide]: the IC50 at human RET kinase was ≤ 10 nM; at human KDR kinase it was 10 to 50 nM; in the experiment on TT cells, 50 to 100 nM.
